# Key:
# MOG-induced EAE mice = test: Efficacy of laquinimod alone or in combination with fingolimod in MOG-induced EAE; assay type: in vivo, mice (C57BL/6); conditions: for activity according to GMS compared to vehicle control: oral QD; for Duration / Onset / Mortality / GMS value / Incidence: Day 1 to 30; for Mortality: dead or moribund/total mice; for GMS value: group mean clinical score (0-6); for Incidence: sick/total mice
# S1PR5 = S1PR5 (Homo sapiens, UniProt Q9H228); conditions: cited from earlier work
# S1PR5, sequence (Q9H228 whole entry, species assumed): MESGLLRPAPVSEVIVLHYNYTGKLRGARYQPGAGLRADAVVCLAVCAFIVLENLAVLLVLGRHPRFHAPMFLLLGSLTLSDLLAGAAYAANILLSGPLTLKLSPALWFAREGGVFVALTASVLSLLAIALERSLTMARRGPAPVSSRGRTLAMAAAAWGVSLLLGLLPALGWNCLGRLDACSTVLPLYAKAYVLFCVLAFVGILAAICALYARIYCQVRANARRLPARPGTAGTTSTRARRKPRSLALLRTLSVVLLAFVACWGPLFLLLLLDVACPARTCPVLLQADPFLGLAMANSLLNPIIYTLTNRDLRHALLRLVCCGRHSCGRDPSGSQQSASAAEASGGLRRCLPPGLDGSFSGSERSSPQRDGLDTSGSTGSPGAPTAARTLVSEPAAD
# S1PR4 = molecular target: T1, S1PR4 (Homo sapiens, UniProt O95977); conditions: cited from earlier work
# T1 sequence (O95977 1-384): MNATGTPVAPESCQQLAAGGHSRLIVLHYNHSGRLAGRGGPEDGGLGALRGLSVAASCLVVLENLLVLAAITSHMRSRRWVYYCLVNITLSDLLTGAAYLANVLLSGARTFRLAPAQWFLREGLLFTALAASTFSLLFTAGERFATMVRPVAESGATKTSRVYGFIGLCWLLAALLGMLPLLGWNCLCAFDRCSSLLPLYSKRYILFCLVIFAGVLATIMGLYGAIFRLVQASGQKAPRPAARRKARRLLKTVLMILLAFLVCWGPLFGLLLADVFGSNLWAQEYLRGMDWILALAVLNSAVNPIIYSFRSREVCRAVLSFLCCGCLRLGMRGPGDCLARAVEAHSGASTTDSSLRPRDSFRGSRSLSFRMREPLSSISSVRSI
structure (smiles),measurement,setting,value
"CCCCCCCCc1ccc(CCC(N)(CO)CO)cc1 [Fingolimod, 2-amino-2-[2-(4-octylphenyl)ethyl]propane-1,3-diol]",activity according to GMS compared to vehicle control,MOG-induced EAE mice; fingolimod 0.3 mg/kg (sub optimal dose),56.3%
same,effectiveness against EAE (in words),MOG-induced EAE mice; fingolimod 0.3 mg/kg alone,moderately effective
same,Duration,MOG-induced EAE mice; fingolimod 0.3 mg/kg oral QD,15.0 ± 6.7 days
same,Onset,MOG-induced EAE mice; fingolimod 0.3 mg/kg oral QD,16.0 ± 6.7 days
same,Mortality,MOG-induced EAE mice; fingolimod 0.3 mg/kg oral QD,0/15
same,GMS value,MOG-induced EAE mice; fingolimod 0.3 mg/kg oral QD,1.4 ± 0.8
same,Incidence,MOG-induced EAE mice; fingolimod 0.3 mg/kg oral QD,13/15
same,activity according to GMS compared to vehicle control,MOG-induced EAE mice; fingolimod 1 mg/kg (optimal dose),81.3%
same,Duration,MOG-induced EAE mice; fingolimod 1 mg/kg oral QD,7.59 ± 9.1 days
same,Onset,MOG-induced EAE mice; fingolimod 1 mg/kg oral QD,21.7 ± 9.3 days
same,Mortality,MOG-induced EAE mice; fingolimod 1 mg/kg oral QD,0/15
same,GMS value,MOG-induced EAE mice; fingolimod 1 mg/kg oral QD,0.6 ± 0.8
same,Incidence,MOG-induced EAE mice; fingolimod 1 mg/kg oral QD,8/15
CCCCCCCCc1ccc(CCC(N)(CO)COP(=O)(O)O)cc1 (stereo not shown) [Fingolimod-phosphate],binding affinity (in words),S1PR5,high affinity
same,binding affinity (in words),S1PR4,high affinity
CCN(C(=O)c1c(O)c2c(Cl)cccc2n(C)c1=O)c1ccccc1 [Laquinimod],activity according to GMS compared to vehicle control,MOG-induced EAE mice; laquinimod 10 mg/kg (sub optimal dose),53.1%
same,effectiveness against EAE (in words),MOG-induced EAE mice; laquinimod 10 mg/kg alone,moderately effective
same,Duration,MOG-induced EAE mice; laquinimod 10 mg/kg oral QD,14.1 ± 6.4 days
same,Onset,MOG-induced EAE mice; laquinimod 10 mg/kg oral QD,17.1 ± 6.3 days
same,Mortality,MOG-induced EAE mice; laquinimod 10 mg/kg oral QD,0/15
same,GMS value,MOG-induced EAE mice; laquinimod 10 mg/kg oral QD,1.5 ± 0.8
same,Incidence,MOG-induced EAE mice; laquinimod 10 mg/kg oral QD,13/15
same,activity according to GMS compared to vehicle control,MOG-induced EAE mice; laquinimod 25 mg/kg (optimal dose),81.1%
same,Duration,MOG-induced EAE mice; laquinimod 25 mg/kg oral QD,8.1 ± 9.0 days
same,Onset,MOG-induced EAE mice; laquinimod 25 mg/kg oral QD,22.9 ± 9.0 days
same,Mortality,MOG-induced EAE mice; laquinimod 25 mg/kg oral QD,0/15
same,GMS value,MOG-induced EAE mice; laquinimod 25 mg/kg oral QD,0.6 ± 0.8
same,Incidence,MOG-induced EAE mice; laquinimod 25 mg/kg oral QD,7/15
